From patent publication US11458201B2, “Mucosal active agent delivery” (Suda Ltd., priority 2016, dated 2022)
Structures can show the parent of a compound that is named as a salt. Where two headings read alike, the source gives them in different places.

Key:
porcine buccal mucosa = assay: Ex vivo permeability experiments, porcine buccal membranes in Franz cells; format: in vitro ADME, domestic pigs (Sus scrofa domestica)
Procedure: Buccal tissue from domestic pigs (Sus scrofa domestica) were obtained from a local abattoir directly after slaughter and immediately placed on ice. Within 2 hours of collection, tissue is prepared for delivery experiments. For permeation experiments tissue is placed in pH 6.8 PBS and epithelium separated from the connective tissue using surgical dissection or by contact in solution (pH 6.8 PBS) heated to 65° C. for 60 seconds. Surgical dissection is preferred method for maintaining intact epithelia with minimal impact on integrity which can occur with heating. After isolation, tissue is placed on Franz cell receiver chamber filled with PBS at pH optimised for permeant solubility and containing micro-stirring bar. Air bubbles are removed before donor chamber is clamped. The exposed epithelial surface is pre-incubated in pH 6.8 PBS in air incubator heated to 37° C. for minimum 15 minutes to equilibrate to temperature. All samples are continuously stirred on a magnetic plate at 300 rpm for duration of pre -incubation and subsequent permeation experiment. After equilibration, the donor chamber buffer is removed by pipette and replaced with active agent solution to be tested. […] At time 0 samples of 200 ul is removed from receiver chamber and 200 ul volume replaced with buffer. Samples taken at timed intervals (standard 15, 30, 60 minutes) are 200 ul volumes removed from side arm of receiver chamber using gel-loading pipette tips. Removed samples are placed in HPLC tubes for HPLC analysis. After each sample is taken the 200 ul volume is replaced with PBS […] buffer to maintain constant volume in receiver chamber (which will dilute slightly each subsequent sample).

[1] = cited from earlier work; for logP: as listed in table of actives by hydrotrope class; for log P: list of suitable active agents
[2] = In vitro single hydrotrope permeability experiments, coated artificial membranes (Franz cell); format: in vitro ADME
Procedure: The solutions thus contain the exact same concentration of active agent in the presence or absence of hydrotrope. The samples may then be tested for permeability through an artificial membrane under identical conditions so that the effect of the hydrotrope on the permeability of the active can be assessed.
Regenerated cellulose membrane filters are coated with lecithin in dodecane for permeation experiments. […] Air bubbles are removed before donor chamber is clamped. The filter is incubated for 1 h and any excess lecithin solution is then removed. All samples are continuously stirred on a magnetic plate at 300 rpm for duration of pre-incubation and subsequent permeation experiment.
After membrane preparation and equilibration, 240 uL each of formulation at buffer pH 6.8 are added to the donor chamber.

[3] = In vivo studies in rabbits, buccal administration, blood PK; set-up: species or system rabbits (Oryctolagus cuniculus) New Zealand White; conditions: rabbit, buccal single dose 20 mg, 2.5% caffeine and 7.5% nicotinamide (F4) in comparison to the Base formulation, FIG. 14
Procedure: Ten male rabbits (Oryctolagus cuniculus) Strain New Zealand White (NZW) aged 8-12 weeks were delivered 5 days prior to the experiment for acclimatisation. The animals were kept in a controlled environment (targeted ranges: temperature 21±3° C., humidity 30-70%), with a light/dark cycle each of 12 hours, and under barrier (quarantine) conditions. Temperature and relative humidity was monitored continuously throughout the study duration. Feed consisted of Rabbit and Guinea Pig pellets. Municipal town water was supplied ad libitum. Dietary enrichment was provided during the acclimation period in the form of fresh fruit and vegetables. Enrichment items were not provided following randomisation into study groups and during dose administration.
Prior to dose administration, a total of ten male NZW rabbits were randomized into two groups of five based on body weight. Each animal group was allocated to receive a different sildenafil Formulation (either sildenafil Formulation 4 (F4) or sildenafil Base formulation (see Example 2)). […]
Portions of whole blood (400 μL) were collected into K2EDTA blood tubes then centrifuged and the resulting […] prior to analysis by LC-MS/MS. Peak concentration in blood (Cmax), Time to reach Cmax (Tmax), half-life (t1/2) and area under curve (AUC) were calculated.

[4] = formulated with Class A hydrotrope caffeine, sweeteners and flavours vs same formulation minus the hydrotrope content, FIG. 13
[5] = as listed with results of FIGS. 3-9
[6] = single hydrotrope screen, formulation at buffer pH 6.8, same active concentration with and without hydrotrope
[7] = sildenafil citrate formulations containing hydrotropes (Table 4) vs Base, FIGS. 11A and 11B

## CN(C)CCOC(C)(c1ccccc1)c1ccccn1 (stereo not shown) [Doxylamine succinate, doxylamine succinate]
Porcine buccal mucosa; [4]
  early permeation: does not affect
  total permeation: increases total permeation
[1]
  logP: 2.96
[1]; [5]
  log P or log D: 2.9
[2]; [6]
  penetration through an artificial membrane in the presence of various hydrotropes (most effective hydrotrope): benzoic acid most effective

## CC(C)Cc1ccc(C(C)C(=O)O)cc1 (stereo not shown) [Ibuprofen, ibuprofen]
[1]; [5]
  log P or log D: 3.5
[2]; [6]
  penetration through an artificial membrane in the presence of various hydrotropes (most effective hydrotrope): no improvement

## Cc1nccn1CC1CCc2c(c3ccccc3n2C)C1=O (stereo not shown) [Ondansetron HCl, ondansetron hydrochloride]
[1]
  logP: Ondansetron HCl (logP 2.4
  log P: 2.4
[1]; [5]
  log P or log D: 2.4
[2]
  hydrotrope class giving the greatest increases in permeability: Class A hydrotropes
[2]; [6]
  penetration through an artificial membrane in the presence of various hydrotropes (most effective hydrotrope): nicotinamide or caffeine most effective

## CCCc1nn(C)c2c(=O)[nH]c(-c3cc(S(=O)(=O)N4CCN(C)CC4)ccc3OCC)nc12 [Sildenafil citrate, sildenafil citrate]
[3]
  bioavailability of sildenafil: marked increase
[1]; pH 7
  log D: 1.6
  log P or log D: 1.6

## Cn1c(=O)c2c(ncn2C)n(C)c1=O [caffeine]
Porcine buccal mucosa; [7]
  effect on early permeation: limited effect
  effect on total permeation: increases total permeation

## CNS(=O)(=O)Cc1ccc2[nH]cc(CCN(C)C)c2c1 [Sumatriptan succinate, sumatriptan succinate]
[1]
  logP: Sumatriptan succinate (logP 0.93
  log P: 0.93
[1]; [5]
  log P or log D: 1.7
[1]; pH 6
  log D: 1.7
[2]; [6]
  penetration through an artificial membrane in the presence of various hydrotropes (most effective hydrotrope): benzoic acid most effective

## Cc1ccc(-c2nc3ccc(C)cn3c2CC(=O)N(C)C)cc1 [Zolpidem tartrate, zolpidem tartrate]
[1]
  logP: Zolpidem tartrate (logP 1.2
  log P: 1.2
[1]; [5]
  log P or log D: 1.2
[2]; [6]
  penetration through an artificial membrane in the presence of various hydrotropes (most effective hydrotrope): citric acid most effective

## O=C(O)Cc1ccccc1Nc1c(Cl)cccc1Cl [Diclofenac sodium, diclofenac sodium]
[1]; hydroalcoholic solution
  log P or log D: 4.75
[2]; hydroalcoholic solution
  penetration through an artificial membrane in the presence of various hydrotropes (most effective hydrotrope): caffeine most effective
